# The supplement of paper PMC9013687
# Key:
# Danio rerio embryo [1] = experiment: spontaneous tail coiling frequency (coils/min/embryo); higher = more spontaneous movement; conditions: 25 hpf
# Procedure: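 Spontaneous tail coilings of zebrafish embryos exposed from 2 hpf were recorded at 24-25 hpf in 1-min videos and detected by a KNIME workflow from grey-value variance. Betamethasone was tested as the dipropionate, diflorasone as the diacetate.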
# Danio rerio embryo [2] = experiment: EC20 Pigmentation decrease; higher = less potent; conditions: exposure time: 2 dpf
# Procedure: (§1)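 Zebrafish embryos (UFZ-OBI strain) were exposed from 2 hpf for 48 h (2 dpf) or 96 h (4 dpf) at 28 °C; spontaneous tail coiling was scored at 25 hpf. Morphological features from automated image analysis (FishInspector), heart rate and locomotor response were fitted with drc models. Quantal endpoints were dichotomised at 2.5 SD from controls and fitted with a log-logistic model; heart rate, pigmentation and STC were normalised to the replicate control mean. Betamethasone was tested as betamethasone dipropionate, diflorasone as diflorasone diacetate.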
# Danio rerio embryo [3] = experiment: EC20 Eye-jaw distance_Decrease; higher = less potent; conditions: exposure time: 4 dpf
# Procedure: as §1
# Danio rerio embryo [4] = experiment: EC10 Curvature_Increase; higher = less potent; conditions: exposure time: 2 dpf
# Procedure: as §1
# Danio rerio embryo [5] = conditions: exposure time: 2 dpf
# Procedure: as §1
# Danio rerio embryo [6] = experiment: EC20 Pericard size_Increase; higher = less potent
# Procedure: as §1
# Danio rerio embryo [7] = experiment: EC10 Any effect; higher = less potent
# Procedure: as §1
# Danio rerio embryo [8] = conditions: exposure time: 4 dpf
# Procedure: as §1
# Danio rerio embryo [9] = experiment: EC50 Pericard size_Increase
# Procedure: as §1
# Danio rerio embryo [10] = experiment: EC10 Body length_Decrease; higher = less potent
# Procedure: as §1
# Danio rerio embryo [11] = experiment: EC10 Pericard size_Increase; higher = less potent
# Procedure: as §1
# Danio rerio embryo [12] = experiment: EC50 Eye-jaw distance_Decrease; conditions: exposure time: 4 dpf
# Procedure: as §1
# Danio rerio embryo [13] = experiment: EC10 LMR dark; higher = less potent; conditions: exposure time: 4 dpf
# Procedure: as §1
# Danio rerio embryo [14] = experiment: EC10 LMR ligth decrease; higher = less potent; conditions: exposure time: 4 dpf
# Procedure: as §1
# Danio rerio embryo [15] = experiment: EC10 Pigmentation decrease; higher = less potent; conditions: exposure time: 2 dpf
# Procedure: as §1
# Danio rerio embryo [16] = experiment: EC20 STC bell shape; higher = less potent; conditions: exposure time: 25 h
# Procedure: as §1
# Danio rerio embryo [17] = experiment: EC10 Otolith-eye distance_Decrease; higher = less potent; conditions: exposure time: 4 dpf
# Procedure: as §1
# Danio rerio embryo [18] = experiment: EC50 Otolith-eye distance_Decrease; conditions: exposure time: 4 dpf
# Procedure: as §1
# Danio rerio embryo [19] = experiment: EC10 STC bell shape; higher = less potent; conditions: exposure time: 25 h
# Procedure: as §1
# Danio rerio embryo [20] = test system: Danio rerio embryo
# Procedure: as §1
# Danio rerio embryo [21] = experiment: EC10 Eye-jaw distance_Decrease; higher = less potent; conditions: exposure time: 4 dpf
# Procedure: as §1
# Danio rerio embryo [22] = experiment: EC20 Body length_Decrease; higher = less potent
# Procedure: as §1
# Danio rerio embryo [23] = experiment: EC20 Otolith-eye distance_Decrease; higher = less potent; conditions: exposure time: 4 dpf
# Procedure: as §1
# Danio rerio embryo [24] = experiment: EC20 Any effect; higher = less potent
# Procedure: as §1
# Danio rerio embryo [25] = experiment: EC50 Curvature_Increase; conditions: exposure time: 2 dpf
# Procedure: as §1
# Danio rerio embryo [26] = experiment: EC50 Body length_Decrease
# Procedure: as §1
# Danio rerio embryo [27] = experiment: EC20 Curvature_Increase; higher = less potent; conditions: exposure time: 2 dpf
# Procedure: as §1
# Danio rerio embryo [28] = experiment: EC20 LMR dark; higher = less potent; conditions: exposure time: 4 dpf
# Procedure: as §1
# Danio rerio embryo [29] = experiment: EC20 LMR ligth decrease; higher = less potent; conditions: exposure time: 4 dpf
# Procedure: as §1
smiles,measurement,setting,value
O=C(O)Cc1ccccc1Nc1c(Cl)cccc1Cl [Diclofenac],spontaneous tail coiling frequency,Danio rerio embryo [1]; 1 µM,2.73
same,spontaneous tail coiling frequency,Danio rerio embryo [1]; 2 µM,2.93
same,spontaneous tail coiling frequency,Danio rerio embryo [1]; 3.123 µM,2.81
same,spontaneous tail coiling frequency,Danio rerio embryo [1]; 4 µM,2.63
same,spontaneous tail coiling frequency,Danio rerio embryo [1]; 5.12 µM,2.43
same,spontaneous tail coiling frequency,Danio rerio embryo [1]; 6.25 µM,2.41
same,spontaneous tail coiling frequency,Danio rerio embryo [1]; 6.4 µM,2.64
same,spontaneous tail coiling frequency,Danio rerio embryo [1]; 8 µM,3.93
same,spontaneous tail coiling frequency,Danio rerio embryo [1]; 10 µM,3.72
same,spontaneous tail coiling frequency,Danio rerio embryo [1]; 12.5 µM,3.42
same,spontaneous tail coiling frequency,Danio rerio embryo [1]; 15.6 µM,4.34
same,spontaneous tail coiling frequency,Danio rerio embryo [1]; 25 µM,4.62
same,spontaneous tail coiling frequency,Danio rerio embryo [1]; 31.25 µM,3.8
same,spontaneous tail coiling frequency,Danio rerio embryo [1]; 50 µM,2.15
same,spontaneous tail coiling frequency,Danio rerio embryo [1]; 62.5 µM,1.4
same,spontaneous tail coiling frequency,Danio rerio embryo [1]; 100 µM,0
same,spontaneous tail coiling frequency,Danio rerio embryo [1]; 150 µM,0
same,EC20 Pigmentation decrease,Danio rerio embryo [2],13.2 µM
same,EC20 Eye-jaw distance Decrease,Danio rerio embryo [3],6.88 µM
same,EC10 Curvature Increase,Danio rerio embryo [4],11.5 µM
same,EC50 Pigmentation decrease,Danio rerio embryo [5],18.8 µM
same,EC20 Pericard size Increase,Danio rerio embryo [6]; exposure time: 2 dpf,11.1 µM
same,EC20 Pericard size Increase,Danio rerio embryo [6]; exposure time: 4 dpf,6.72 µM
same,EC10 Any effect,Danio rerio embryo [7]; exposure time: 2 dpf,10.7 µM
same,EC10 Any effect,Danio rerio embryo [7]; exposure time: 4 dpf,4.28 µM
same,EC50 LMR dark,Danio rerio embryo [8],8.07 µM
same,EC50 Pericard size Increase,Danio rerio embryo [9]; exposure time: 2 dpf,12.2 µM
same,EC50 Pericard size Increase,Danio rerio embryo [9]; exposure time: 4 dpf,8.32 µM
same,EC10 Body length Decrease,Danio rerio embryo [10]; exposure time: 2 dpf,11.1 µM
same,EC10 Body length Decrease,Danio rerio embryo [10]; exposure time: 4 dpf,6.47 µM
same,EC10 Pericard size Increase,Danio rerio embryo [11]; exposure time: 2 dpf,10.5 µM
same,EC10 Pericard size Increase,Danio rerio embryo [11]; exposure time: 4 dpf,5.93 µM
same,EC50 Eye-jaw distance Decrease,Danio rerio embryo [12],10.1 µM
same,EC10 LMR dark,Danio rerio embryo [13],6.21 µM
same,EC10 LMR ligth decrease,Danio rerio embryo [14],5.85 µM
same,EC10 Pigmentation decrease,Danio rerio embryo [15],10.9 µM
same,EC20 STC bell shape,Danio rerio embryo [16],37.8 µM
same,EC10 Otolith-eye distance Decrease,Danio rerio embryo [17],5.67 µM
same,EC50 Otolith-eye distance Decrease,Danio rerio embryo [18],9.6 µM
same,EC10 STC bell shape,Danio rerio embryo [19],32.4 µM
same,EC50 Any effect,Danio rerio embryo [20]; exposure time: 2 dpf,12.4 µM
same,EC50 Any effect,Danio rerio embryo [20]; exposure time: 4 dpf,8.22 µM
same,EC50 LMR ligth decrease,Danio rerio embryo [20]; exposure time: 4 dpf,8.24 µM
same,EC50 STC bell shape,Danio rerio embryo [20]; exposure time: 25 h,50.9 µM
same,EC10 Eye-jaw distance Decrease,Danio rerio embryo [21],5.49 µM
same,EC20 Body length Decrease,Danio rerio embryo [22]; exposure time: 2 dpf,12.1 µM
same,EC20 Body length Decrease,Danio rerio embryo [22]; exposure time: 4 dpf,7.11 µM
same,EC20 Otolith-eye distance Decrease,Danio rerio embryo [23],6.89 µM
same,EC20 Any effect,Danio rerio embryo [24]; exposure time: 2 dpf,11.3 µM
same,EC20 Any effect,Danio rerio embryo [24]; exposure time: 4 dpf,5.45 µM
same,EC50 Curvature Increase,Danio rerio embryo [25],13.2 µM
same,EC50 Body length Decrease,Danio rerio embryo [26]; exposure time: 2 dpf,14.2 µM
same,EC50 Body length Decrease,Danio rerio embryo [26]; exposure time: 4 dpf,8.33 µM
same,EC20 Curvature Increase,Danio rerio embryo [27],12.1 µM
same,EC20 LMR dark,Danio rerio embryo [28],6.84 µM
same,EC20 LMR ligth decrease,Danio rerio embryo [29],6.64 µM
